Tested on: HBV
Assay: HBV infection in HepG2-NTCP cells (HBeAg AlphaLISA in supernatants)
Type: cell-based
Conditions: Hepatitis B virus, 192 h; HBV infection of HepG2-NTCP cells; HBeAg in supernatants at day 8 post infection; read-out: Cellular EC50
Experimental: HepG2-NTCP A3 cells were maintained in DMEM media supplemented with GlutaMAX™ 10% fetal bovine serum, 1% penicillin/streptomycin, and 5 μg/mL puromycin at 37° C. in a humidified atmosphere with 5% CO2 in a collagen-coated tissue culture flask.
HepG2-NTCP cells were seeded in 384 well plate containing 16,000 cells/well two days prior to the infection. On the day of infection, compounds were 3-fold serially diluted in DMSO and pre-incubated with HepG2-NTCP cells for two hours before purified HBV addition. HBV infection was carried out at 2000 GE/cell with 4% PEG, and the final concentration of DMSO is 0.5%. On day one post infection, HBV-containing media was aspirated, cells were washed once with PBS and then maintained in 2.5% DMSO containing media for the remainder of the assay.
Supernatants from infected HepG2-NTCP cells were collected at day 8 post infection, and the amount of viral antigen HBeAg was measured by HBeAg AlphaLISA detection kit (PerkinElmer) following the manufacturer's recommended protocol. Irrespective of readout, compound concentrations that reduce viral product accumulation in supernatants by […] relative to DMSO controls (EC50) are reported. EC50 ranges are as follows: A<0.1 μM; B 0.1-1 μM; C>1 μM.

| SMILES | EC50 [µM] |
| --- | --- |
| CN1[C@H](C2CCCCC2)CN(c2ccccc2)c2cc(OCc3ccccc3)c(-c3ccc(F)c(C(=O)O)c3)cc2S1(=O)=O [Example 332, (R)-5-(7-(benzyloxy)-3-cyclohexyl-2-methyl-1,1-dioxido-5-phenyl-2,3,4,5-tetrahydrobenzo[f][1,2,5]thiadiazepin-8-yl)-2-fluorobenzoic acid] | < 0.1 |
| CN1[C@H](C2CCCCC2)CN(c2ccccc2)c2cc(Cl)c(-c3ccc(F)c(C(=O)O)n3)cc2S1(=O)=O [Example 141, (R)-6-(7-chloro-3-cyclohexyl-2-methyl-1,1-dioxido-5-phenyl-2,3,4,5-tetrahydrobenzo[f][1,2,5]thiadiazepin-8-yl)-3-fluoropicolinic acid] | 0.1 to 1 |
| CN1[C@H](C2CCCCC2)CNc2cc(-c3ccncc3)c(-c3ccc(F)c(C(=O)O)c3)cc2S1(=O)=O [Example 570] | > 1 |
| CC(C)C[C@@H]1CN(c2ccccc2)c2cc(Cl)c(-c3cccc(C(=O)C(=O)O)c3)cc2S(=O)(=O)N1C [Example 205, (R)-2-(3-(7-chloro-3-isobutyl-2-methyl-1,1-dioxido-5-phenyl-2,3,4,5-tetrahydrobenzo[f][1,2,5]thiadiazepin-8-yl)phenyl)-2-oxoacetic acid] | < 0.1 |
| CN1C(C23CC(C2)C3)CN(c2ccccc2)c2cc(Cl)c(-c3ccc(F)c(C(=O)O)c3)cc2S1(=O)=O (centres unmarked) [Example 86] | 0.1 to 1 |
| CN1[C@H](C(C)(C)C)CN(c2ccccc2)c2cc(Cl)c(-c3ccc(F)c(C(=O)O)c3)cc2S1(=O)=O [Example 85, (R)-5-(3-(tert-butyl)-7-chloro-2-methyl-1,1-dioxido-5-phenyl-2,3,4,5-tetrahydrobenzo[f][1,2,5]thiadiazepin-8-yl)-2-fluorobenzoic acid] | < 0.1 |
| COc1cc2c(cc1-c1cccc(C(=O)O)c1)S(=O)(=O)N(C)C(C)CN2c1ccccc1 (centres unmarked) [Example 15, 3-(7-methoxy-2,3-dimethyl-1,1-dioxido-5-phenyl-2,3,4,5-tetrahydrobenzo[f][1,2,5]thiadiazepin-8-yl)benzoic acid] | > 1 |
| Cc1nc(COc2cc3c(cc2-c2cc(F)c(C(=O)O)s2)S(=O)(=O)N(C)[C@H](C2CCCCC2)CN3c2ccccc2)sc1C [Example 500] | < 0.1 |
| CN1[C@H](C2CCCCC2)CN(c2ccccc2)c2cc(C34CC(C3)C4)c(-c3ccc(F)c(C(=O)O)c3)cc2S1(=O)=O [Example 587] | 0.1 to 1 |
| CN1[C@H](C2CCCCC2)CN(c2ccccc2)c2cc(Cl)c(-c3ccc(NC(=O)OCc4ccccc4)c(C(=O)O)c3)cc2S1(=O)=O [Example 236] | < 0.1 |
| CN1[C@H](C2CCCCC2)CN(c2ccccc2)c2cc(C3CCNCC3)c(-c3ccc(F)c(C(=O)O)c3)cc2S1(=O)=O [Example 596] | > 1 |
| CCCC[C@@H]1CN(c2ccccc2)c2cc(Nc3ccccc3F)c(-c3cc(F)c(F)c(C(=O)O)c3)cc2S(=O)(=O)N1C [Example 560, (R)-5-(3-butyl-7-((2-fluorophenyl)amino)-2-methyl-1,1-dioxido-5-phenyl-2,3,4,5-tetrahydrobenzo[f][1,2,5]thiadiazepin-8-yl)-2,3-difluorobenzoic acid] | < 0.1 |
| CN1C[C@@H](C2CCCCC2)N(C)S(=O)(=O)c2cc(-c3ccc(F)c(C(=O)O)c3)c(-c3ccccc3F)cc21 [Example 581] | 0.1 to 1 |
| CC(C)C[C@@H]1CN(c2ccccc2)c2cc(O[C@@H]3C[C@H](C)CCC3C(C)C)c(-c3ccc(F)c(C(=O)O)c3)cc2S(=O)(=O)N1C (some centres unmarked) [Example 442] | < 0.1 |
| CCOC(=O)Nc1cc(-c2cc3c(cc2F)N(c2ccccc2)C[C@@H](C2CCCCC2)N(C)S3(=O)=O)sc1C(=O)O [Example 265, (R)-5-(3-cyclohexyl-7-fluoro-2-methyl-1,1-dioxido-5-phenyl-2,3,4,5-tetrahydrobenzo[f][1,2,5]thiadiazepin-8-yl)-3-((ethoxycarbonyl)amino)thiophene-2-carboxylic acid] | < 0.1 |
| CN1[C@H](CCc2ccccc2)CN(c2ccccc2)c2cc(Cl)c(-c3ccc(F)c(C(=O)O)c3)cc2S1(=O)=O [Example 53] | > 1 |
| O=C(O)c1cc(-c2cc3c(cc2F)N(c2ccccc2)C[C@H]2C[C@@H](C(F)(F)F)CN2S3(=O)=O)ccc1F [Example 10] | > 1 |
| CCCCCOc1cc2c(cc1-c1ccc(F)c(C(=O)O)c1)S(=O)(=O)N(C)[C@H](C1CCCCC1)CN2c1ccccc1 [Example 351] | < 0.1 |
| CC(C)C[C@@H]1CN(c2ccccc2)c2cc(OC3CN(C)C3)c(-c3ccc(F)c(C(=O)O)c3)cc2S(=O)(=O)N1C [Example 447] | > 1 |
| CC(C)C[C@@H]1CN(c2ccccc2)c2cc(Cl)c(-c3ccc(OCC(F)(F)F)c(C(=O)O)c3)cc2S(=O)(=O)N1C [Example 214, (R)-5-(7-chloro-3-isobutyl-2-methyl-1,1-dioxido-5-phenyl-2,3,4,5-tetrahydrobenzo[f] [1,2,5]thiadiazepin-8-yl)-2-(2,2,2-trifluoroethoxy)benzoic acid] | 0.1 to 1 |
| CC(C)C[C@@H]1CN(c2ccccc2)c2cc(Cl)c(-c3ccc(C(F)(F)F)c(C(=O)O)c3)cc2S(=O)(=O)N1C [Example 186] | < 0.1 |
| CCCCCCCCCCOc1cc2c(cc1-c1ccc(F)c(C(=O)O)c1)S(=O)(=O)N(C)[C@H](C1CCCCC1)CN2c1ccccc1 [Example 354] | 0.1 to 1 |

| SMILES | EC50 [µM] |
| --- | --- |
| CN1[C@H](C2CCCCC2)CN(c2cc(F)cc(F)c2)c2cc(Cl)c(-c3ccc(F)c(C(=O)O)c3)cc2S1(=O)=O [Example 297] | < 0.1 |
| CC(C)CC1CN(c2cccc(F)c2)c2cc(Cl)c(-c3cccc(C(=O)O)c3)cc2S(=O)(=O)N1C (centres unmarked) [Example 329] | 0.1 to 1 |
| CC(C)CC1CN(c2ccccc2F)c2cc(Cl)c(-c3cccc(C(=O)O)c3)cc2S(=O)(=O)N1C (centres unmarked) [Example 330] | 0.1 to 1 |
| CN1[C@H](C2CCCCC2)CN(c2ccccc2)c2cc(OCc3ccsc3)c(-c3ccc(NC(=O)OCc4ccccc4)c(C(=O)O)c3)cc2S1(=O)=O [Example 481] | < 0.1 |
| CN1C(CC2CCCC2)CN(c2ccccc2)c2cc(Cl)c(-c3ccc(Cl)c(C(=O)O)c3)cc2S1(=O)=O (centres unmarked) [Example 78] | 0.1 to 1 |
| CC(C)C[C@@H]1CN(c2ccccc2)c2cc(-c3ccc4ncoc4c3)c(-c3ccc(F)c(C(=O)O)c3)cc2S(=O)(=O)N1C [Example 579] | 0.1 to 1 |
| CN1[C@H](C2CCCCC2)CNc2cc(-c3ccccc3F)c(-c3ccc(F)c(C(=O)O)c3)cc2S1(=O)=O [Example 569, (R)-5-(3-cyclohexyl-7-(2-fluorophenyl)-2-methyl-1,1-dioxido-2,3,4,5-tetrahydrobenzo[f][1,2,5]thiadiazepin-8-yl)-2-fluorobenzoic acid] | < 0.1 |
| CC(C)C[C@@H]1CN(c2ccccc2)c2cc(Nc3ccccn3)c(-c3ccc(Cl)c(C(=O)O)c3)cc2S(=O)(=O)N1C [Example 549] | 0.1 to 1 |
| CN1[C@H](C2CCCCC2)CN(c2ccccc2)c2cc(O[C@H]3C[C@@H](C#N)C3)c(-c3ccc(F)c(C(=O)O)c3)cc2S1(=O)=O [Example 382] | < 0.1 |
| CN1[C@H](C2CCCCC2)CN(c2ccccc2)c2cc(OCc3csc(Cl)c3)c(-c3cc(F)c(C(=O)O)s3)cc2S1(=O)=O [Example 487] | < 0.1 |
| CN1[C@H](C2CCCCC2)CN(c2ccc3c(c2)OC(F)(F)O3)c2cc(Cl)c(-c3ccc(F)c(C(=O)O)c3)cc2S1(=O)=O [Example 314] | < 0.1 |
| CC(C)CC1CN(c2ccccc2)c2cc(Cl)c(-c3cc(F)cc(C(=O)O)c3)cc2S(=O)(=O)N1C (centres unmarked) [Example 36] | 0.1 to 1 |
| CN1[C@@H](Cc2ccc(Cl)cc2)CN(c2ccccc2)c2cc(F)c(-c3ccc(F)c(C(=O)O)c3)cc2S1(=O)=O [Example 2] | > 1 |
| CN1[C@H](CC2CCCCC2)CN(c2ccccc2)c2cc(Cl)c(-c3ccc(F)c(C(=O)O)c3)cc2S1(=O)=O [Example 52] | 0.1 to 1 |
| CC(C)C[C@@H]1CN(c2ccccc2)c2cc(Cl)c(-c3ccc4[nH]ncc4c3)cc2S(=O)(=O)N1C [Example 181] | > 1 |
| O=C(O)c1cncc(-c2cc3c(cc2F)N(c2ccccc2)CC2CC4(CC4)CN2S3(=O)=O)c1 (centres unmarked) [Example 6] | > 1 |
| CN1[C@H](C2CCCCC2)CNc2cc(-c3ccoc3)c(-c3ccc(F)c(C(=O)O)c3)cc2S1(=O)=O [Example 571] | 0.1 to 1 |
| COc1cc(-c2cc3c(cc2Cl)N(c2ccccc2)C[C@@H](C2CCCCC2)N(C)S3(=O)=O)sc1C(=O)O [Example 118] | < 0.1 |
| CC(C)C[C@@H]1CN(c2ccccc2)c2cc(Oc3ccc(OC(F)(F)F)cc3)c(-c3ccc(F)c(C(=O)O)c3)cc2S(=O)(=O)N1C [Example 439] | < 0.1 |
| CN1[C@H](C2CCCCC2)CN(c2ccccc2)c2cc(C#Cc3ccsc3)c(-c3ccc(F)c(C(=O)O)c3)cc2S1(=O)=O [Example 602, (R)-5-(3-cyclohexyl-2-methyl-1,1-dioxido-5-phenyl-7-(thiophen-3-ylethynyl)-2,3,4,5-tetrahydrobenzo[f][1,2,5]thiadiazepin-8-yl)-2-fluorobenzoic acid] | < 0.1 |
| CN1[C@H](C2CCCCC2)CN(c2ccccc2)c2cc(Cl)c(-c3ccc(C(=O)O)s3)cc2S1(=O)=O [Example 130, (R)-5-(7-chloro-3-cyclohexyl-2-methyl-1,1-dioxido-5-phenyl-2,3,4,5-tetrahydrobenzo[f][1,2,5]thiadiazepin-8-yl)thiophene-2-carboxylic acid] | < 0.1 |
| CC(C)C[C@@H]1CN(c2ccccc2)c2cc(Cl)c(-c3ccc4o[nH]c(=O)c4c3)cc2S(=O)(=O)N1C [Example 180] | 0.1 to 1 |

From patent publication US20240368096A1 (Enanta Pharmaceuticals, Inc., priority 2022, published 2024)
